From ChEMBL document CHEMBL4602725 (J Med Chem, 2020)

Columns and labels:
Histone deacetylase 1 [1] = target: T1, Histone deacetylase 1 (Homo sapiens, UniProt Q13547); experiment: Inhibition of human recombinant HDAC1 pre-incubated for 30 mins before Ac-Leu- Gly-Lys(Ac)-AMC substrate addition and measured after 90 mins by fluorescence based assay
Histone deacetylase 3 = Histone deacetylase 3 (Homo sapiens, UniProt O15379); experiment: Inhibition of human recombinant HDAC3 pre-incubated for 30 mins before Ac-Leu- Gly-Lys(Ac)-AMC substrate addition and measured after 90 mins by fluorescence based assay
Sequence of Histone deacetylase 3 (O15379 whole entry): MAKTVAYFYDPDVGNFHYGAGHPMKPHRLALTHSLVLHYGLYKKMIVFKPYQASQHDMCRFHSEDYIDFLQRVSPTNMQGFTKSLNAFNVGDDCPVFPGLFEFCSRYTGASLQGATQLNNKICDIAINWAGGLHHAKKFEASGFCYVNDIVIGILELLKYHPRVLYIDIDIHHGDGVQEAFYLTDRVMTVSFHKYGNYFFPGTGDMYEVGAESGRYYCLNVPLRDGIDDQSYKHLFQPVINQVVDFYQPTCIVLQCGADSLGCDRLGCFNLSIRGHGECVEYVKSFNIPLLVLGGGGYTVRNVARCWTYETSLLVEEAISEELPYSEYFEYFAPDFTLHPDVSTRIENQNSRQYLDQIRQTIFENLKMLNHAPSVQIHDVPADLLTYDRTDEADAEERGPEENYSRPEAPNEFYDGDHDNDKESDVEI

Histone deacetylase 2 = Histone deacetylase 2 (Homo sapiens, UniProt Q92769); experiment: Inhibition of human recombinant HDAC2 pre-incubated for 30 mins before Ac-Leu- Gly-Lys(Ac)-AMC substrate addition and measured after 90 mins by fluorescence based assay
Sequence of Histone deacetylase 2 (Q92769 whole entry): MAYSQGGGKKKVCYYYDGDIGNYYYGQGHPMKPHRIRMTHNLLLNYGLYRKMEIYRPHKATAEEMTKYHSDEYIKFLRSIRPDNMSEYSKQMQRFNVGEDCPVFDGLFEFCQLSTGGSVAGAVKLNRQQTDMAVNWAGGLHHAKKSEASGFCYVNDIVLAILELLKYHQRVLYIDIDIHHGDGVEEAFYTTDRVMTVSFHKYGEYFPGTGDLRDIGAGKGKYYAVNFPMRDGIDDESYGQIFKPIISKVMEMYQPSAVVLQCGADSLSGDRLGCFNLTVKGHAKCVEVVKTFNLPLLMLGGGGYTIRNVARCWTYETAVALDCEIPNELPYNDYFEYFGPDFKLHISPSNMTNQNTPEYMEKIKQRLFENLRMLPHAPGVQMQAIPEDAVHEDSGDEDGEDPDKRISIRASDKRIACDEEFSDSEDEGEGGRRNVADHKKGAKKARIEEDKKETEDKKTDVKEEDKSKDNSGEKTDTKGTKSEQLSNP

Histone deacetylase 8 = target: T2, Histone deacetylase 8 (Homo sapiens, UniProt Q9BY41); experiment: Inhibition of human recombinant HDAC8 pre-incubated for 30 mins before Ac-Leu- Gly-Lys(Ac)-AMC substrate addition and measured after 90 mins by fluorescence based assay
T2 sequence (Q9BY41 whole entry): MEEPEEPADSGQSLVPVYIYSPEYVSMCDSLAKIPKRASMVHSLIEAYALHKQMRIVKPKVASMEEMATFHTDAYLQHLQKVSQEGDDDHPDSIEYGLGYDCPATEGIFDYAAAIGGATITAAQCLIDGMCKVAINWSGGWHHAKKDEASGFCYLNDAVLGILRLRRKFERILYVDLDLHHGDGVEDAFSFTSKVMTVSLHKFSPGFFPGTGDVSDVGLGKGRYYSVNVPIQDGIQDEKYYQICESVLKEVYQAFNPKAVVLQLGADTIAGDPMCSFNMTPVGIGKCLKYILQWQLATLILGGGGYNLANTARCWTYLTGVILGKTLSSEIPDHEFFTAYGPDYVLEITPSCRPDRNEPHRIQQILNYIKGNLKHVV

HeLa [2] = experiment: Cytotoxicity against human HeLa cells assessed as increase in intracellular caspase 3/7 release incubated for 72 hrs by Caspase-Glo 3/7 assay
A549 [3] = experiment: Cytotoxicity against human A549 cells assessed as reduction in cell viability incubated for 72 hrs by MTT assay; details: A549, 72 h
A549 [4] = experiment: Cytotoxicity against human A549 cells assessed as increase in intracellular caspase 3/7 release incubated for 72 hrs by Caspase-Glo 3/7 assay; details: A549, 72 h
NFF [5] = experiment: Cytotoxicity against human NFF cells assessed as increase in intracellular caspase 3/7 release incubated for 72 hrs by Caspase-Glo 3/7 assay
HT-29 [6] = experiment: Cytotoxicity against human HT-29 cells assessed as reduction in cell viability incubated for 72 hrs by MTT assay; details: HT-29, 72 h
MM96L [7] = experiment: Cytotoxicity against human MM96L cells assessed as reduction in cell viability incubated for 72 hrs by MTT assay
MM96L [8] = experiment: Cytotoxicity against human MM96L cells assessed as increase in intracellular caspase 3/7 release incubated for 72 hrs by Caspase-Glo 3/7 assay
HT-29 [9] = experiment: Cytotoxicity against human HT-29 cells assessed as increase in intracellular caspase 3/7 release incubated for 72 hrs by Caspase-Glo 3/7 assay; details: HT-29, 72 h
NFF [10] = experiment: Cytotoxicity against human NFF cells assessed as reduction in cell viability incubated for 72 hrs by MTT assay
MDA-MB-231 [11] = experiment: Cytotoxicity against human MDA-MB-231 cells assessed as reduction in cell viability incubated for 72 hrs by MTT assay; details: MDA-MB-231, 72 h
MDA-MB-231 [12] = experiment: Cytotoxicity against human MDA-MB-231 cells assessed as increase in intracellular caspase 3/7 release incubated for 72 hrs by Caspase-Glo 3/7 assay; details: MDA-MB-231, 72 h
HeLa [13] = experiment: Cytotoxicity against human HeLa cells assessed as reduction in cell viability incubated for 72 hrs by MTT assay
Histone deacetylase 1 [14] = target: T1, Histone deacetylase 1; experiment: Inhibition of HDAC1 in human MM96L cells assessed as activation of histone H4 acetylation at Lys5, Lys8, Lys12 and Lys16 residues by Western blot analysis; type: cell-based

T1 sequence (Q13547 whole entry): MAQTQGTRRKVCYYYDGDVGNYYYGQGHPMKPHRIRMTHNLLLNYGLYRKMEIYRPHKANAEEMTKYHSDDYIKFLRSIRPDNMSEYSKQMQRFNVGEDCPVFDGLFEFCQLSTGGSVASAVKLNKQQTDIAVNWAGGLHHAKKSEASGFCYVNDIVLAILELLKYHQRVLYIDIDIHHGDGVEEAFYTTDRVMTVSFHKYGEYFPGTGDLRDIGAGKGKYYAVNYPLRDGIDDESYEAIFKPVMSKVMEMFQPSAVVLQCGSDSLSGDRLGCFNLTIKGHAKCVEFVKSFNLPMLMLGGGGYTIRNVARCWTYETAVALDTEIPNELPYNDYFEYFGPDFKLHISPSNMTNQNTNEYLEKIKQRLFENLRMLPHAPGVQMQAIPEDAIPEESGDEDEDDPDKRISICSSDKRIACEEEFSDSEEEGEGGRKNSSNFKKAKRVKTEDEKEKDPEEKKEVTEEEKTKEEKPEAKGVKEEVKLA

SMILES	IC50 (Histone deacetylase 1 [1])	other results
COc1cccc(-c2nc(C3(C(=O)Nc4ccc(C(=O)NO)cc4)CCCC3)cs2)c1	15 nM	–
Cc1[nH]ncc1-c1ccc(C2(C(=O)Nc3ccc(C(=O)NO)cc3)CCCC2)cc1	5 nM	–
O=C(NO)c1ccc(NC(=O)C2(c3ccc(-c4cn[nH]c4)cc3)CCCCC2)cc1	2 nM	IC50 (Histone deacetylase 3): 2 nM; IC50 (Histone deacetylase 2): 10 nM; IC50 (Histone deacetylase 8): 69 nM
CC(C)C(NC(=O)c1ccc(C(=O)NO)cc1)c1ccccc1 (racemic)	2120 nM	–
CC(C)C(C(=O)N(C)c1ccc(C(=O)NO)cc1)c1ccccc1 (racemic)	439 nM	–
COc1ccc(C2(C(=O)Nc3ccc(C(=O)NO)cc3)CCCCC2)cc1-c1cccc(N)c1	10 nM	–
CC(C)C(C(=O)Nc1ccc(C(=O)NO)cn1)c1ccccc1 (stereo unspecified)	22 nM	–
CC(C)C(C(=O)Nc1ccc(C(=O)NO)cc1Cl)c1ccccc1 (racemic)	1060 nM	–
COc1ccc(C2(C(=O)Nc3ccc(C(=O)NO)cc3)CCCCC2)cc1Br	31 nM	–
O=C(NO)c1ccc(NC(=O)C2(c3c[nH]c(-c4ccc(Br)cc4)n3)CCCC2)cc1	10 nM	–
O=C(NO)c1ccc(NC(=O)C2(c3ccc(-c4ccc5[nH]ccc5c4)cc3)CCCC2)cc1	8 nM	–
O=C(NO)c1ccc(NC(=O)C2(c3ccc4c(c3)OCO4)CCCCC2)cc1	42 nM	–
O=C(NO)c1ccc(NC(=O)C2(c3csc(-c4ccccc4Oc4ccccc4)n3)CCCC2)cc1	431 nM	–
CC(C)C(C(=O)Nc1ccc(C(=O)NO)cc1)c1ccccc1 (racemic)	–	EC50 (HeLa [2]): 8100 nM; IC50 (A549 [3]): 1500 nM; EC50 (A549 [4]): 15600 nM; EC50 (NFF [5]): 24300 nM; IC50 (HT-29 [6]): 600 nM; IC50 (MM96L [7]): 300 nM; EC50 (MM96L [8]): 900 nM; EC50 (HT-29 [9]): 1700 nM; IC50 (NFF [10]): 500 nM; IC50 (MDA-MB-231 [11]): 1500 nM; EC50 (MDA-MB-231 [12]): 2400 nM; IC50 (HeLa [13]): 700 nM
CC(=O)Nc1ccc(N)cc1-c1ccc(C2(C(=O)Nc3ccc(C(=O)NO)cc3)CCCCC2)cc1	10 nM	–
O=C(NO)c1ccc(NC(=O)C2(c3ccc(C(F)(F)F)c(F)c3)CCCC2)cc1	227 nM	–
COc1ccc(C2(C(=O)Nc3ccc(C(=O)NO)cc3)CCCCC2)cc1-c1ccccc1NC(C)=O	9 nM	–
CC(=O)Nc1cccc(-c2ccc(C3(C(=O)Nc4ccc(C(=O)NO)cc4)CCCC3)cc2)c1	5 nM	–

SMILES	IC50 (Histone deacetylase 1 [1])	other results
O=C(O)c1cccc(-c2ccc(C3(C(=O)Nc4ccc(C(=O)NO)cc4)CCCC3)cc2)c1	2 nM	EC50 (HeLa [2]): > 100000 nM; IC50 (A549 [3]): > 100000 nM; EC50 (A549 [4]): > 100000 nM; IC50 (HT-29 [6]): > 100000 nM; IC50 (MM96L [7]): > 100000 nM; IC50 (Histone deacetylase 3): 7 nM; EC50 (MM96L [8]): > 100000 nM; EC50 (HT-29 [9]): > 100000 nM; IC50 (Histone deacetylase 2): 13 nM; IC50 (Histone deacetylase 8): 118 nM; IC50 (MDA-MB-231 [11]): > 100000 nM; EC50 (MDA-MB-231 [12]): > 100000 nM; IC50 (HeLa [13]): > 100000 nM
O=C(NO)c1ccc(NC(=O)C(c2ccccc2)c2ccccc2)cc1	250 nM	–
O=C(NO)c1ccc(NC(=O)C2(c3ccc(-c4ccc(OCc5ccccc5)nc4)cc3)CCCC2)cc1	240 nM	–
CCCC(CCC)C(=O)Nc1ccc(C(=O)NO)cc1	738 nM	–
C/C(=N\O)c1sccc1-c1ccc(C2(C(=O)Nc3ccc(C(=O)NO)cc3)CCCC2)cc1	43 nM	–
Cc1n[nH]c(C)c1-c1ccc(C2(C(=O)Nc3ccc(C(=O)NO)cc3)CCCC2)cc1	8 nM	–
COc1ccc(C2(C(=O)Nc3ccc(C(=O)NO)cc3)CCCCC2)cc1-c1cn[nH]c1	3 nM	–
O=C(NO)c1ccc(NC(=O)C2(c3csc(-c4cccc(Oc5ccccc5)c4)n3)CCCC2)cc1	> 10000 nM	–
O=C(NO)c1ccc(NC(=O)C2(c3ccc4ccccc4c3)CCOCC2)cc1	–	EC50 (HeLa [2]): 700 nM; IC50 (A549 [3]): 100 nM; EC50 (A549 [4]): 2600 nM; EC50 (NFF [5]): 4300 nM; IC50 (HT-29 [6]): 40 nM; IC50 (MM96L [7]): 20 nM; inhibition (Histone deacetylase 1 [14]): Dose-dependent effect; IC50 (Histone deacetylase 3): 2 nM; EC50 (MM96L [8]): 60 nM; EC50 (HT-29 [9]): 200 nM; IC50 (NFF [10]): 400 nM; IC50 (Histone deacetylase 2): 8 nM; IC50 (Histone deacetylase 8): 44 nM; IC50 (MDA-MB-231 [11]): 100 nM; EC50 (MDA-MB-231 [12]): 300 nM; IC50 (HeLa [13]): 30 nM
CC(C)C(C(=O)Nc1ccc(C(=O)NO)c(Cl)c1)c1ccccc1 (racemic)	8680 nM	–
COc1ccc(C2(C(=O)Nc3ccc(C(=O)NO)cc3)CCCCC2)cc1OC	29 nM	–
O=C(NO)c1ccc(NC(=O)C2(c3ccccc3)CCNCC2)cc1	12 nM	–
O=C(NO)c1ccc(NC(=O)C2(c3c[nH]c(-c4ccc([N+](=O)[O-])cc4)n3)CCCC2)cc1	6 nM	–
O=C(NO)c1ccc(NC(=O)C2(c3ccc(-c4cn[nH]c4)cc3)CCOCC2)cc1	2 nM	–
CC(C)C(C(=O)Nc1ccc(C(=O)Nc2ccccc2N)cc1)c1ccccc1 (racemic)	231 nM	–
Nc1cccc(-c2ccc(C3(C(=O)Nc4ccc(C(=O)NO)cc4)CCCC3)cc2)c1	4 nM	–
CC(=O)Nc1ccccc1-c1ccc(C2(C(=O)Nc3ccc(C(=O)NO)cc3)CCCC2)cc1	0.94 nM	–

Second part, led by results:

IC50 (Histone deacetylase 1 [1])	SMILES	other results
75 nM	O=C(Cc1ccccc1)Nc1ccc(C(=O)NO)cc1	–
12 nM	O=C(NO)c1ccc(NC(=O)C2(c3ccc(Cl)cc3)CCCC2)cc1	–
63 nM	O=C(NO)c1ccc(NC(=O)C2(c3ccc(Br)cc3)CCCCC2)cc1	–
12 nM	O=C(NO)c1ccc(NC(=O)C2(c3csc(-c4ccccc4)n3)CCCC2)cc1	–
15 nM	O=C(NO)c1ccc(NC(=O)C2(c3ccccc3)CCCCC2)cc1	–
22 nM	Nc1ccc(C2(C(=O)Nc3ccc(C(=O)NO)cc3)CCOCC2)cc1	–
7 nM	O=C(NO)c1ccc(NC(=O)C2(c3ccc(Br)cc3)CCCC2)cc1	–
5 nM	O=C(NO)c1ccc(NC(=O)C2(c3ccc(-c4cccnc4)cc3)CCCC2)cc1	–
16 nM	O=C(NO)c1ccc(NC(=O)C2(c3ccc(-c4ccccc4)cc3)CCCC2)cc1	–
28 nM	O=C(NO)c1ccc(NC(=O)C2(c3ccccc3)CCCC2)cc1	–
3 nM	O=C(NO)c1ccc(NC(=O)C2(c3c[nH]c(-c4ccccc4)n3)CCCC2)cc1	IC50 (Histone deacetylase 3): 10 nM; IC50 (Histone deacetylase 2): 21 nM; IC50 (Histone deacetylase 8): 41 nM
42 nM	O=C(NO)c1ccc(NC(=O)C2(c3ccc(-c4ccccc4)c(F)c3)CCCC2)cc1	–
4 nM	O=C(NO)c1ccc(NC(=O)C2(c3ccc(-c4cc[nH]n4)cc3)CCCC2)cc1	–
23 nM	O=C(NO)c1ccc(NC(=O)C2(c3c[nH]c4ccccc34)CCCC2)cc1	–
6 nM	O=C(NO)c1ccc(NC(=O)C2(c3ccc(Cl)c(Cl)c3)CCOCC2)cc1	–
132 nM	O=C(NO)c1ccc(NC(=O)C2(c3ccccc3)CCCC2)nc1	–
43 nM	O=C(NO)c1ccc(NC(=O)C2(c3ccc4ccccc4c3)CCCCC2)cc1	–
2 nM	O=C(NO)c1ccc(NC(=O)C2(c3ccc(Br)cc3)CCOCC2)cc1	EC50 (Histone deacetylase 1 [14]): 600 nM; inhibition (Histone deacetylase 1 [14]): Dose-dependent effect; IC50 (Histone deacetylase 3): 4 nM; IC50 (Histone deacetylase 2): 17 nM; IC50 (Histone deacetylase 8): 59 nM
93 nM	O=C(NO)c1ccc(NC(=O)C2(c3ccccc3)CC2)cc1	–
218 nM	CC(C)(C(=O)Nc1ccc(C(=O)NO)cc1)c1ccccc1	–
11 nM	O=C(NO)c1ccc(NC(=O)C2(c3ccc4ccccc4c3)CCCC2)cc1	–
28 nM	O=C(NO)c1ccc(NC(=O)C2(c3ccccc3)CCOCC2)cc1	–
3 nM	O=C(NO)c1ccc(NC(=O)C2(c3ccc(-c4cn[nH]c4)cc3)CCCC2)cc1	–
41 nM	O=C(NO)c1ccc(NC(=O)C2(c3ccc(F)cc3)CCCC2)cc1	–
430 nM	CCC(CC)(C(=O)Nc1ccc(C(=O)NO)cc1)c1ccccc1	–
9 nM	O=C(NO)c1ccc(NC(=O)C2(c3ccc([N+](=O)[O-])cc3)CCOCC2)cc1	–
